Reference: US7553867B2, “Furan or thiophene derivative and medicinal use thereof” (Takeda Pharmaceutical Company Limited, priority 2002, dated 2009)

Experiments:
human GPR40 = target: T1, human GPR40 (Homo sapiens, UniProt O14842); experiment: Receptor function regulating action (agonist action) for GPR40, intracellular calcium by FLIPR in CHO cells; format: cell-based; details: CHO cells expressing human GPR40; change of fluorescence intensity at 30 seconds after reaction initiation
T1 construct: expressed in transfected cells; host or cells: CHO cell strain (No. 104)
Protocol: CHO cell strain (No. 104) which have had expressed human GPR40 was diluted to contain 3×10^4 cells/100 μL, and added to a Black walled 96-well plate (Costar) at 100 μL/well, and incubated overnight in CO2 incubator. Change of intracellular calcium concentration was measured with FLIPR (Molecular Device). The method is as follows. 50 μg of Fluo-3AM (DOJIN) was dissolved in 21 μL of DMSO (DOJIN), and the same amount of 20% pluronic acid (Molecular Probes) was further added thereto, and the mixture was mixed. The mixture was added to 10.6 mL of an assay buffer [prepared by adding 10 mL of solution which was produced by adding 20 mL of 1 M HEPES (pH 7.4) (DOJIN) to 1 L of HBSS (Invitrogen), dissolving 710 mg of probenecid (Sigma) in 5 mL of 1N NaOH, and further adding 5 mL of the above-mentioned HBSS/HEPES solution thereto and mixing it.] containing 105 μL of fetal bovine serum, to give a fluorescent dye solution. The medium of the cell plate was removed, and immediately, the fluorescent dye solution was added at 100 μL/well, and incubated in CO2 incubator for 1 hour, allowing the fluorescent dye to be incorporated into the cells. The cells after incubation were washed with the above-mentioned assay buffer. The compound to be added to the cells was diluted with the assay buffer to each concentration, added to the plate for the test sample. After conducting the above-mentioned pretreatment, intracellular calcium concentration change after adding the compound was measured in FLIPR to investigate the agonist action. By dose-response curve with the change of fluorescence intensity value at 30 seconds after reaction initiation, EC50 value was calculated.

PPARδ-RXRα heterodimer = target: T2, PPARδ-RXRα heterodimer (Homo sapiens, UniProt Q03181); experiment: PPARδ-RXRα heterodimer ligand activity (luciferase reporter, transfected COS-1 cells); format: cell-based; details: luciferase activity at 10 nM test compound relative to non-administration group as 1
T2 construct: expressed in transfected cells; host or cells: COS-1 (transient; pMCMVneo-hPPARδ + pMCMVneo-hRXRα)
T2 sequence (Q03181 1-441): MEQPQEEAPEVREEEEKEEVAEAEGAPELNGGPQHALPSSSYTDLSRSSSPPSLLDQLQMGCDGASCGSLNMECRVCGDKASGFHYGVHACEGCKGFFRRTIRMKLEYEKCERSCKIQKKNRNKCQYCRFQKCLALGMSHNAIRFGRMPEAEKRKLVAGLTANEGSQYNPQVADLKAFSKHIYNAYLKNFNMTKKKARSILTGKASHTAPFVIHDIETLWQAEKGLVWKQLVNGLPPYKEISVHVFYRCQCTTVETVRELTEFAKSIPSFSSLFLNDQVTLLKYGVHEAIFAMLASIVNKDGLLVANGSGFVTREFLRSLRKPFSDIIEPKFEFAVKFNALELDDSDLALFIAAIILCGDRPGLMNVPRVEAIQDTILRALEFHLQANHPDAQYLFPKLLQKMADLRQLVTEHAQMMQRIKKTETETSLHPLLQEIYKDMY
T2 sequence (P19793 1-462 partner): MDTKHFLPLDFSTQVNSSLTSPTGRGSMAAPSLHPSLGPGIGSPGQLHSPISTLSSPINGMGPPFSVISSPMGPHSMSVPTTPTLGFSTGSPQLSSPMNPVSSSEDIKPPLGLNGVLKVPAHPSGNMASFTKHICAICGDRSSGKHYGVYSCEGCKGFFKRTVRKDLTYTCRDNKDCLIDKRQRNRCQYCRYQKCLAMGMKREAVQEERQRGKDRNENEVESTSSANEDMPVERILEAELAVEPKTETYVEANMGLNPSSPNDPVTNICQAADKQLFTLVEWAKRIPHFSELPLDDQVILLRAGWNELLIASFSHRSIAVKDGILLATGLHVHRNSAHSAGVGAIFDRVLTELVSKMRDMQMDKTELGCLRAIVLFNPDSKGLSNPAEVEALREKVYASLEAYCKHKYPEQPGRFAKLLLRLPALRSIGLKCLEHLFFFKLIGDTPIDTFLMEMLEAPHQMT
Protocol: At 18 to 24 hours after transfection carried out in Reference Example 9a, COS-1 cells were collected, suspended in DMEM medium [manufactured by Life Technologies, Inc., USA] containing 0.1% fatty acid-free bovine serum albumin (BSA) (produced by Waco Pure Chemicals Industries, Ltd.), and inoculated to each well of a 96-well white plate (produced by Corning, USA) at 1×10^4 cells/well in 80 μl. Subsequently, 20 μl of a test compound was added, and the plate was incubated under the conditions of 37° C. and 5% CO2 for 36 to 48 hours. After removal of the medium from the 96-well white plate, 40 μl of PicaGene. LT 7.5 (produced by Waco Pure Chemicals Industries, Ltd.) diluted twofold with HBSS (HANKS' BALANCED SALT SOLUTION) (produced by BIO WHITTAKER) was added, and after stirring, the luciferase activity was determined using 1420 ARVO Multilabel Counter [produced by Wallac].
The fold induction was calculated from the luciferase activity for addition of each 10 nM of the test compound relative to the luciferase activity of the test compound non-administration group as 1. Results are shown in [Table 2].
A COS-1 cell was inoculated in a cell culture flask (produced by Corning, USA) of 150 cm^2 at 5×10^6 cells/50 ml, and the plate was incubated under the conditions of 37° C. and 5% CO2 for 24 hours. Transfection was carried out with lipofectamine (produced by Invitrogen, USA). A transfection mixture solution was prepared by mixing 125 μl of lipofectamine, 100 μl of PLUS Reagent, 2.5 μg of pMCMVneo-hPPARδ (obtained in Reference Example 3a), 2.5 μg of pMCMVneo-hRXRα (obtained in Reference Example 4a), 5 μg of reporter plasmid pGL3-4ERPP-TK neo (obtained in Reference Example 5a) and 5 μg of pRL-tk [produced by Promega, USA] with 5 ml of opti-MEM (produced by Invitrogen, USA). To the COS-1 cell washed with opti-MEM, the above-mentioned transfection mixture solution and 20 ml of opti-MEM were added, and then incubated under the conditions of 37° C. and 5% CO2 for 3 hours. Then, 25 ml of DMEM medium [manufactured by Life Technologies, Inc., USA] containing 0.1% fatty acid-free bovine serum albumin (BSA) (produced by Waco Pure Chemicals Industries, Ltd.) was added thereto, and then incubated under the conditions of 37° C. and 5% CO2 for 18 to 24 hours.

PPARγ-RXRα heterodimer = target: T3, PPARγ-RXRα heterodimer (Homo sapiens, UniProt P37231); experiment: PPARγ-RXRα heterodimer ligand activity (luciferase reporter, PPARγ:RXRα:4ERPP/CHO-K1 cells); format: cell-based; details: luciferase activity at 100 nM test compound relative to non-administration group as 1
T3 construct: expressed in transfected cells
T3 sequence (P37231 1-477 isoform P37231-2): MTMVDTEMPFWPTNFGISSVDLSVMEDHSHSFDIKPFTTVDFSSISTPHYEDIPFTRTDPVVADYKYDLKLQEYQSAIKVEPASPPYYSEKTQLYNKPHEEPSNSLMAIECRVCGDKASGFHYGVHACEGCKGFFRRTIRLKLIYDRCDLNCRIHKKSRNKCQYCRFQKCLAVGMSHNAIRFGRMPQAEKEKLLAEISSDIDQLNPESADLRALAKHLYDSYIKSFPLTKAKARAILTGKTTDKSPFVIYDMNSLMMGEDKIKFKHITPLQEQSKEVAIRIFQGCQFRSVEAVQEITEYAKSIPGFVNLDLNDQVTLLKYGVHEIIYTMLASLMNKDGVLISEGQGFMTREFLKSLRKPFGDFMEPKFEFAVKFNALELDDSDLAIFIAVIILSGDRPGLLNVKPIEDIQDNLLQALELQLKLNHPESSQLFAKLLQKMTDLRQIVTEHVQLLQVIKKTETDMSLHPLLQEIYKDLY
T3 sequence (P19793 1-462 partner): T2 sequence (P19793 1-462 partner)
Protocol: The PPARγ:RXRα:4ERPP/CHO-K1 cells obtained in Reference Example 8a were cultured in Ham's F12 medium [produced by Life Technologies, Inc., USA] containing 10% fetal bovine serum [produced by Life Technologies, Inc., USA] and inoculated to a 96-well white plate [produced by Corning Coster Corporation, USA] at 2×10^4 cells/well and cultured overnight at 37° C. in a carbon dioxide gas incubator.
After removal of the medium from the 96-well white plate which had been cultured overnight, Ham's F12 medium containing 80 μl of 0.1% fatty acid-free bovine serum albumin (BSA) and 20 μl of a test compound were added, and the plate was incubated at 37° C. in a carbon dioxide gas incubator for 18 to 24 hours. After removal of the medium, 40 μl of PicaGene 7.5 (produced by Waco Pure Chemicals Industries, Ltd.) diluted twofold with HBSS (HANKS' BALANCED SALT SOLUTION) (produced by BIO WHITTAKER) was added, and after stirring, the luciferase activity was determined using 1420 ARVO Multilabel Counter [produced by Wallac].
A fold induction was calculated from the luciferase activity for addition of each 100 nM of the test compound relative to the luciferase activity of the test compound non-administration group as 1. Results are shown in [Table 1]. […]

T1 sequence (O14842 whole entry): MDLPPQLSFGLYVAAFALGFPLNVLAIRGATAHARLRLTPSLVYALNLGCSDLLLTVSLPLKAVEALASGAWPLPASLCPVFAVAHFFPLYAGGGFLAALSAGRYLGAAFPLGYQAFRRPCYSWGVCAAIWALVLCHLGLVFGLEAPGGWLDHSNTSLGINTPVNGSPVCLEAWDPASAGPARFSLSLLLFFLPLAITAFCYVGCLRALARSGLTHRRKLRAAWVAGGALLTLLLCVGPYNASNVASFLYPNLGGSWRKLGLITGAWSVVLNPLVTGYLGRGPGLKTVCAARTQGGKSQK

SMILES	EC50 (human GPR40)	melting point	fold induction at 0.01 µM (PPARδ-RXRα heterodimer)	fold induction at 0.1 µM (PPARγ-RXRα heterodimer)
COc1cc(OCc2cc(-c3ccc(C(F)(F)F)cc3)oc2C)ccc1CCC(=O)O [Example 6(6), 3-[2-Methoxy-4-({2-methyl-5-[4-(trifluoromethyl)phenyl]-3-furyl}methoxy)phenyl]propionic acid]	160 nM	159 to 160 °C	6.6	–
Cc1oc(C2CCCCC2)c(COc2cccc(CSCC(=O)O)c2)c1-c1ccc(F)cc1 [Example 5(2), [(3-{[2-Dichlorohexyl-4-(4-fluorophenyl)-5-methyl-3-furyl]methoxy}benzyl)thio]acetic acid]	–	–	–	2.3
CCc1oc(-c2ccc(C(F)(F)F)cc2)cc1COc1ccc(CCC(=O)O)c(C)c1 [Example 5(9), 3-[4-({2-Ethyl-5-[4-(trifluoromethyl)phenyl]-3-furyl}methoxy)-2-methylphenyl]propionic acid]	–	95 to 97 °C	6.7	–
Cc1cc(OCCCc2cc(-c3ccc(C(F)(F)F)cc3)oc2C)ccc1CCC(=O)O [Example 6(24), 3-[2-Methyl-4-(3-{2-methyl-5-[4-(trifluoromethyl)phenyl]-3-furyl}propoxy)phenyl]propionic acid]	–	125 to 126 °C	6.8	–
CCCCCCCN(C(=O)c1cc(-c2ccc(F)cc2)oc1C)c1cccc(CSCC(=O)O)c1 [Example 1(3), [(3{[5-(4-Fluorophenyl)-2-methyl-3-furoyl](heptyl)amino}benzyl)thio]acetic acid]	–	94 to 96 °C	–	2.8
CCc1oc(-c2ccc(C(F)(F)F)cc2)cc1CCCOc1cccc(CC(=O)O)c1 [Example 6(26), [3-(3-{2-Ethyl-5-[4-(trifluoromethyl)phenyl]-3-furyl}propoxy)phenyl]acetic acid]	–	113 to 114 °C	5.6	–
Cc1cc(OCc2cc(-c3ccc(C(F)(F)F)cc3)oc2C)ccc1CCC(=O)O [Example 6(4), 3-[2-Methyl-4-({2-methyl-5-[4-(trifluoromethyl)phenyl]-3-furyl}methoxy)phenyl]propionic acid]	180 nM	140 to 141 °C	7.4	–
